From patent publication US20260092071A1, “COMPOUNDS AND COMPOSITIONS AS SMARCA2/4 DEGRADERS AND USES THEREOF” (REGENTS OF THE UNIVERSITY OF MICHIGAN, priority 2022, published 2026) come the findings set out here.

One experiment concerns the target SMARCA4 (Homo sapiens, UniProt P51532). The experiment can be described thus: HiBit assay in engineered HT1080 CRISPR knock-in cell, 6 hrs (B series), SMARCA4. As to conditions: 6 hrs incubation; for DC50: HT1080 CRISPR knock-in cells, read-out: SMARC A4 HT1080 HiBit DC50; for Dmax: HT-1080, HT1080 CRISPR knock-in cells, read-out: SMARC A4 HT1080 HiBit Dmax(%). The class given is cell-based. In outline: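 HT1080 CRISPR knock-in cells carrying the HiBiT tag were seeded onto compounds (final DMSO 0.1%) and incubated 6 hrs at 37° C, 5% CO2. Remaining tagged protein was detected by lytic HiBiT luminescence after adding LgBiT protein and substrate, with LgBiT-free wells serving as negative control.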
For orientation: The HiBiT peptide binds its large partner to form an active luciferase.

The next experiment has as its target SMARCA2 (Homo sapiens, UniProt P51531). Nature of the experiment: HiBit assay in engineered HT1080 CRISPR knock-in cell, 6 hrs (B series), SMARCA2. The experiment is classed as cell-based. As to conditions: 6 hrs incubation; for DC50: HT1080 CRISPR knock-in cells, read-out: SMARC A2 HT1080 HiBit DC50; for Dmax: HT-1080, HT1080 CRISPR knock-in cells, read-out: SMARC A2 HT1080 HiBit Dmax (%). Put shortly: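 Engineered HT1080 knock-in cells, 2000 cells/well, 6 hrs compound exposure, 37° C/5% CO2, 0.1% DMSO final. Lytic detection: LgBiT 1:100 plus HiBiT substrate 1:50 in lytic buffer, 10 min shake at RT, luminescence read.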

Chain of SMARCA4 (P51532 whole entry): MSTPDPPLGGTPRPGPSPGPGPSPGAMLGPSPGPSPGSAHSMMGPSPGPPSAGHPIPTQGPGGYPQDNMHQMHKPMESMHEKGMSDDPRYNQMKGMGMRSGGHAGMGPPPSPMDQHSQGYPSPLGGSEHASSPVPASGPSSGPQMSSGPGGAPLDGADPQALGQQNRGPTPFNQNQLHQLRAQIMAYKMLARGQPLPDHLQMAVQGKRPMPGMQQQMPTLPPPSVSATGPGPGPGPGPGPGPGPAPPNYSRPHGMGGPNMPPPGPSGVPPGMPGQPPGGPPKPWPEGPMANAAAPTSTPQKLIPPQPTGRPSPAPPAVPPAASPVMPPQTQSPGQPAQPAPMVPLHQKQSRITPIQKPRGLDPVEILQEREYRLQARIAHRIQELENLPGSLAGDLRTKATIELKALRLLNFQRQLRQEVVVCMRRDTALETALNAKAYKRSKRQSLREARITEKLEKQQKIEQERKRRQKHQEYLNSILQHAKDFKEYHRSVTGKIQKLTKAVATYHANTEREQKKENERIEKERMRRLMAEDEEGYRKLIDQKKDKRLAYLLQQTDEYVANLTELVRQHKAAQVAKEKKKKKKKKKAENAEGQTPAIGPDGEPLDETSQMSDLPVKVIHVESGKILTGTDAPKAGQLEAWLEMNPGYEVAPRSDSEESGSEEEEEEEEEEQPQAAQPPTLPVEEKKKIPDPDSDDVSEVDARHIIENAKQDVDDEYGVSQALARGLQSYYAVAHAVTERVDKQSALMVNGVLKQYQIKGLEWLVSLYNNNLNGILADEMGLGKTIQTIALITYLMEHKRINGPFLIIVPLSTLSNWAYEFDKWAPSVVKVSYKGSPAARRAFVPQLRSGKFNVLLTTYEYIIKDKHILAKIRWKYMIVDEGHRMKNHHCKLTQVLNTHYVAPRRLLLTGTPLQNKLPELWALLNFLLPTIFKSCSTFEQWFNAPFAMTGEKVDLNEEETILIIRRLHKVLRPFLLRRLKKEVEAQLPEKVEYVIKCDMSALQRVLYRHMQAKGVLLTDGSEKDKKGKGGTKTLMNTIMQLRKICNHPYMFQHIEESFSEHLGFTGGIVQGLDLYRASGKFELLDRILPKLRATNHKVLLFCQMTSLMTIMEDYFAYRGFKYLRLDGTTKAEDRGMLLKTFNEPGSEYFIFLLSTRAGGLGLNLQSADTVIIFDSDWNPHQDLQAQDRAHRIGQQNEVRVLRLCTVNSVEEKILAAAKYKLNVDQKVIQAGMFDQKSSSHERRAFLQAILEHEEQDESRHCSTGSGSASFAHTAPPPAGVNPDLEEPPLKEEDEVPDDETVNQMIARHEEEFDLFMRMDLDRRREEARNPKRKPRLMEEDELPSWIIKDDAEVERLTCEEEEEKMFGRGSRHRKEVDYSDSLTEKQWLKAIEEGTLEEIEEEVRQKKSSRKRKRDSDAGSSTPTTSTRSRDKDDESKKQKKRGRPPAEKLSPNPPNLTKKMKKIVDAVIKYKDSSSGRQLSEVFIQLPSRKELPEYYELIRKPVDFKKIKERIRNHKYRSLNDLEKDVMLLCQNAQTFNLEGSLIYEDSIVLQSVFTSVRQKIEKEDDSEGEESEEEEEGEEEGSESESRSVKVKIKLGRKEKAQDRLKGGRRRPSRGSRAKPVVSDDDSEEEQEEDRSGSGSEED
Chain of SMARCA2 (P51531 whole entry): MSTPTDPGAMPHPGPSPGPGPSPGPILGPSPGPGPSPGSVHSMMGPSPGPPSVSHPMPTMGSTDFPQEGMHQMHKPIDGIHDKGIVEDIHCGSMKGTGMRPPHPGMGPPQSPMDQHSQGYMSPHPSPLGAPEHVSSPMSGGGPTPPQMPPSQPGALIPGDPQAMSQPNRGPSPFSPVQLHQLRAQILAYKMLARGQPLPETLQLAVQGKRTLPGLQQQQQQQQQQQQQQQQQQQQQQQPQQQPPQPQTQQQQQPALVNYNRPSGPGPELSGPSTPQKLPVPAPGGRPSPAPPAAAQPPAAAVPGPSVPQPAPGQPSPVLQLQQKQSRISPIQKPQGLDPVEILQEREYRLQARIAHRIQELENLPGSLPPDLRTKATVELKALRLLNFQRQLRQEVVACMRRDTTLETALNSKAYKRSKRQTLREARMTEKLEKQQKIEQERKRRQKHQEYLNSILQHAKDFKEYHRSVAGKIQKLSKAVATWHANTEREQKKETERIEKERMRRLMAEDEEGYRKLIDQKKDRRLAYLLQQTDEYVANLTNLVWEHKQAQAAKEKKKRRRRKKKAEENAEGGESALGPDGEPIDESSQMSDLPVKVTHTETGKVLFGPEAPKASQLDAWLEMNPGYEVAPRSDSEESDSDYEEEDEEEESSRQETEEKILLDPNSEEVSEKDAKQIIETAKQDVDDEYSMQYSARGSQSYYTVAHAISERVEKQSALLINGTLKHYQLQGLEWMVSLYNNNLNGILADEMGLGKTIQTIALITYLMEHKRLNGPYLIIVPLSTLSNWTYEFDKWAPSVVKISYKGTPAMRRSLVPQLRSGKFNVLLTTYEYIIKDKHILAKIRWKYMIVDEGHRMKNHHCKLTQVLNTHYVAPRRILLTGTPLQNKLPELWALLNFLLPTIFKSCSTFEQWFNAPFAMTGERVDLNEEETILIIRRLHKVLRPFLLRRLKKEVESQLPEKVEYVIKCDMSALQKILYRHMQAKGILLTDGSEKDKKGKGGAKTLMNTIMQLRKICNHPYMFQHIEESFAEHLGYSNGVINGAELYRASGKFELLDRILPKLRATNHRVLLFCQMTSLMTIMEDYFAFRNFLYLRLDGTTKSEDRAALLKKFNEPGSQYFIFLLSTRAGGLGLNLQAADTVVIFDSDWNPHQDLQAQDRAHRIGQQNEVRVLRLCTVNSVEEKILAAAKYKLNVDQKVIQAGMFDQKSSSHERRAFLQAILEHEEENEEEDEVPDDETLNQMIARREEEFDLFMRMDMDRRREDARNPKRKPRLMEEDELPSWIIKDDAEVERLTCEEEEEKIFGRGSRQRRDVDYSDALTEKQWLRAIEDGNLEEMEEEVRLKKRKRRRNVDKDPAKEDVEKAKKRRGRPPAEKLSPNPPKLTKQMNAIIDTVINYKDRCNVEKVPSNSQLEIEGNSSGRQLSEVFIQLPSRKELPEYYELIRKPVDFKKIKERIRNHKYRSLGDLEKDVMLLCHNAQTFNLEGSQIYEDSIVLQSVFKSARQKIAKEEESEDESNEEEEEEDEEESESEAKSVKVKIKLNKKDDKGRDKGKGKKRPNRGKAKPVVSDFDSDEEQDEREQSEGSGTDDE

On to `Cc1nc(C)c(-c2ccc([C@H](C)NC(=O)[C@@H]3C[C@@H](O)CN3C(=O)[C@@H](n3cc([C@H]4CC[C@H](CN5CCN(c6ccc7c(c6)-n6c(nc(=O)c8c(Cl)cccc86)C7(C)C)CC5)CC4)nn3)C(C)(C)C)cc2)s1` [Compound B133, (2S,4R)-1-((S)-2-(4-((1r,4S)-4-((4-(4-chloro-7,7-dimethyl-5-oxo-5,7-dihydroindolo[1,2-a]quinazolin-10-yl)piperazin-1-yl)methyl)cyclohexyl)-1H-1,2,3-triazol-1-yl)-3,3-dimethylbutanoyl)-N-((S)-1-(4-(2,4-dimethylthiazol-5-yl)phenyl)ethyl)-4-hydroxypyrrolidine-2-carboxamide], for which the DC50 at SMARCA4 and on SMARCA2 was less than 100 nM each time. For the same compound, the results for the Dmax at SMARCA4 and on SMARCA2 were 70 to 90% and greater than 90%, respectively.
Consider `CC(=O)c1ccc([C@H](C)NC(=O)[C@@H]2C[C@@H](O)CN2C(=O)[C@H](C(C)C)n2cc([C@H]3CC[C@H](CN4CCC(c5ccc6c(c5)-n5c(nc(=O)c7c(Cl)cccc75)C6(C)C)CC4)CC3)nn2)cc1` [Compound B134, (2S,4R)-N-((S)-1-(4-acetylphenyl)ethyl)-1-((S)-2-(4-((1r,4S)-4-((4-(4-chloro-7,7-dimethyl-5-oxo-5,7-dihydroindolo[1,2-a]quinazolin-10-yl)piperidin-1-yl)methyl)cyclohexyl)-1H-1,2,3-triazol-1-yl)-3-methylbutanoyl)-4-hydroxypyrrolidine-2-carboxamide], for which the DC50 at SMARCA4 and at SMARCA2 was less than 100 nM each time. The Dmax at SMARCA4 was 50 to 69%; on SMARCA2, greater than 90%.
On to `C[C@H](NC(=O)[C@@H]1C[C@@H](O)CN1C(=O)[C@@H](n1cc([C@H]2CC[C@H](CN3CCN(c4ccc5c(c4)-n4c(nc(=O)c6c(Cl)cccc64)C5(C)C)CC3)CC2)nn1)C(C)(C)C)c1ccc(-c2scnc2C#CCN2CCOCC2)cc1` [Compound B135, (2S,4R)-1-((S)-2-(4-((1r,4S)-4-((4-(4-chloro-7,7-dimethyl-5-oxo-5,7-dihydroindolo[1,2-a]quinazolin-10-yl)piperazin-1-yl)methyl)cyclohexyl)-1H-1,2,3-triazol-1-yl)-3,3-dimethylbutanoyl)-4-hydroxy-N-((S)-1-(4-(4-(3-morpholinoprop-1-yn-1-yl)thiazol-5-yl)phenyl)ethyl)pyrrolidine-2-carboxamide], for which, at SMARCA4, the DC50 was less than 100 nM and the Dmax is 70 to 90%. Besides, on SMARCA2, the DC50 was less than 100 nM and the Dmax was greater than 90%.
With `CC(C)[C@@H](C(=O)N1C[C@H](O)C[C@H]1C(=O)N[C@@H](C)c1ccc(-c2scnc2C#CCN2CCOCC2)cc1)n1cc([C@H]2CC[C@H](CN3CCN(c4ccc5c(c4)-n4c(nc(=O)c6c(Cl)cccc64)C5(C)C)CC3)CC2)nn1` [Compound B136, (2S,4R)-1-((S)-2-(4-((1r,4S)-4-((4-(4-chloro-7,7-dimethyl-5-oxo-5,7-dihydroindolo[1,2-a]quinazolin-10-yl)piperazin-1-yl)methyl)cyclohexyl)-1H-1,2,3-triazol-1-yl)-3-methylbutanoyl)-4-hydroxy-N-((S)-1-(4-(4-(3-morpholinoprop-1-yn-1-yl)thiazol-5-yl)phenyl)ethyl)pyrrolidine-2-carboxamide], at SMARCA4, the DC50 was less than 100 nM and the Dmax lay in the range of 70 to 90%. Also, on SMARCA2, the DC50 is less than 100 nM and the Dmax is greater than 90%.
For `Cc1ncsc1-c1ccc([C@H](C)NC(=O)[C@@H]2C[C@@H](O)CN2C(=O)[C@H](C(C)C)n2cc(C3CCC(c4cccc5c4C(C)(C)c4nc(=O)c6c(Cl)cccc6n4-5)CC3)nn2)cc1` (stereo partly drawn) [Compound B137, (2S,4R)-1-((S)-2-(4-(4-(4-chloro-7,7-dimethyl-5-oxo-5,7-dihydroindolo[1,2-a]quinazolin-8-yl)cyclohexyl)-1H-1,2,3-triazol-1-yl)-3-methylbutanoyl)-4-hydroxy-N-((S)-1-(4-(4-methylthiazol-5-yl)phenyl)ethyl)pyrrolidine-2-carboxamide], the DC50 at SMARCA4 and on SMARCA2 was less than 100 nM throughout. In addition, the Dmax on SMARCA4 is less than 50%; at SMARCA2, greater than 90%.
Regarding `Cc1ncsc1-c1ccc([C@H](CN2CCOCC2)NC(=O)[C@@H]2C[C@@H](O)CN2C(=O)[C@@H](c2cc(O[C@H]3CC[C@H](CN4CCN(c5ccc6c(c5)-n5c(nc(=O)c7c(Cl)cccc75)C65CCCCC5)CC4)CC3)no2)C(C)C)cc1` [Compound B138, (2S,4R)-1-((R)-2-(3-(((1r,4R)-4-((4-(4′-chloro-5′-oxo-5′H-spiro[cyclohexane-1,7′-indolo[1,2-a]quinazolin]-10′-yl)piperazin-1-yl)methyl)cyclohexyl)oxy)isoxazol-5-yl)-3-methylbutanoyl)-4-hydroxy-N-((R)-1-(4-(4-methylthiazol-5-yl)phenyl)-2-morpholinoethyl)pyrrolidine-2-carboxamide], on SMARCA4, the DC50 is less than 100 nM and the Dmax is greater than 90%. Also, at SMARCA2, the DC50 is less than 100 nM and the Dmax was greater than 90%.
Turning to `Cc1cc(C(C(=O)N2C[C@H](O)C[C@H]2C(=O)N[C@@H](CN2CCC(CN3CCC(c4cccc5c4C(C)(C)c4nc(=O)c6c(Cl)cccc6n4-5)CC3)CC2)c2ccc(-c3scnc3C)cc2)C(C)C)on1` (stereo partly drawn) [Compound B139, (2S,4R)—N—((R)-2-(4-((4-(4-chloro-7,7-dimethyl-5-oxo-5,7-dihydroindolo[1,2-a]quinazolin-8-yl)piperidin-1-yl)methyl)piperidin-1-yl)-1-(4-(4-methylthiazol-5-yl)phenyl)ethyl)-4-hydroxy-1-(3-methyl-2-(3-methylisoxazol-5-yl)butanoyl)pyrrolidine-2-carboxamide], at SMARCA4, the DC50 was less than 100 nM and the Dmax was 70 to 90%. In addition, on SMARCA2, the DC50 is less than 100 nM and the Dmax is greater than 90%.
As to `C[C@H](NC(=O)[C@@H]1C[C@@H](O)CN1C(=O)[C@@H](n1cc(C2CCC(CN3CCN(c4ccc5c(c4)-n4c(nc(=O)c6c(Cl)cccc64)C54CCCCC4)CC3)CC2)nn1)C(C)(C)C)c1ccc(-c2scnc2C#CCN2CCOCC2)cc1` (stereo partly drawn) [Compound B140, (2S,4R)-1-((S)-2-(4-((1s,4R)-4-((4-(4′-chloro-5′-oxo-5′H-spiro[cyclohexane-1,7′-indolo[1,2-a]quinazolin]-10′-yl)piperazin-1-yl)methyl)cyclohexyl)-1H-1,2,3-triazol-1-yl)-3,3-dimethylbutanoyl)-4-hydroxy-N-((S)-1-(4-(4-(3-morpholinoprop-1-yn-1-yl)thiazol-5-yl)phenyl)ethyl)pyrrolidine-2-carboxamide], the DC50 on SMARCA4 and on SMARCA2 was less than 100 nM each time. The Dmax at SMARCA4 is 50 to 69%; on SMARCA2, greater than 90%.
Consider `C[C@H](NC(=O)[C@@H]1C[C@@H](O)CN1C(=O)[C@@H](n1cc([C@H]2CC[C@H](CN3CCC(c4ccc5c(c4)-n4c(nc(=O)c6c(Cl)cccc64)C5(C)C)CC3)CC2)nn1)C(C)(C)C)c1ccc(-c2scnc2C#N)cc1` [Compound B141, (2S,4R)-1-((S)-2-(4-((1r,4S)-4-((4-(4-chloro-7,7-dimethyl-5-oxo-5,7-dihydroindolo[1,2-a]quinazolin-10-yl)piperidin-1-yl)methyl)cyclohexyl)-1H-1,2,3-triazol-1-yl)-3,3-dimethylbutanoyl)-N-((S)-1-(4-(4-cyanothiazol-5-yl)phenyl)ethyl)-4-hydroxypyrrolidine-2-carboxamide], for which the DC50 on SMARCA4 was 100 to 500 nM; at SMARCA2, less than 100 nM. Besides, the figures for the Dmax at SMARCA4 and at SMARCA2 were less than 50% and greater than 90%, respectively.
With `Cc1ncsc1-c1ccc2c(NC(=O)[C@@H]3C[C@@H](O)CN3C(=O)[C@@H](n3cc([C@H]4CC[C@H](CN5CCC(c6ccc7c(c6)-n6c(nc(=O)c8c(Cl)cccc86)C7(C)C)CC5)CC4)nn3)C(C)(C)C)nccc2c1` [Compound B143, (2S,4R)-1-((S)-2-(4-((1r,4S)-4-((4-(4-chloro-7,7-dimethyl-5-oxo-5,7-dihydroindolo[1,2-a]quinazolin-10-yl)piperidin-1-yl)methyl)cyclohexyl)-1H-1,2,3-triazol-1-yl)-3,3-dimethylbutanoyl)-4-hydroxy-N-(6-(4-methylthiazol-5-yl)isoquinolin-1-yl)pyrrolidine-2-carboxamide], the values for the DC50 on SMARCA4 and on SMARCA2 were greater than 1000 nM and 100 to 500 nM, respectively. For the same compound, the Dmax was less than 50% at SMARCA4 and 70 to 90% on SMARCA2.
Regarding `Cc1cc(C(C(=O)N2C[C@H](O)C[C@H]2C(=O)N[C@@H](C)c2ccc(-c3scnc3C#CCN3CCC(c4ccc5c(c4)C(C)(C)c4nc(=O)c6c(Cl)cccc6n4-5)CC3)cc2)C(C)C)on1` (stereo partly drawn) [Compound B144, (2S,4R)—N—((S)-1-(4-(4-(3-(4-(4-chloro-7,7-dimethyl-5-oxo-5,7-dihydroindolo[1,2-a]quinazolin-9-yl)piperidin-1-yl)prop-1-yn-1-yl)thiazol-5-yl)phenyl)ethyl)-4-hydroxy-1-(3-methyl-2-(3-methylisoxazol-5-yl)butanoyl)pyrrolidine-2-carboxamide], the DC50 was less than 100 nM at SMARCA4 and 100 to 500 nM on SMARCA2. Further, the Dmax at SMARCA4 and on SMARCA2 was 50 to 69% throughout.
